This is an account of results in patent publication US20220411448A1, “CHROMENE-4-ONE DERIVATIVES AS BRAIN-DERIVED NEUROTROPHIC FACTOR (BDNF) MIMETICS” (FLORATEK PHARMA AG, priority 2019, published 2022).

For one data set, the system named is Astrocytes. The data set is described as follows: Cellular ATP/ADP ratio (luciferase, CellTiter-Glo). It is filed as cell-based, mouse. How it is done:
ATP content was measured enzymatically as previously described [Lambert H P et al, Control of Mitochondrial pH by Uncoupling Protein 4 in Astrocytes Promotes Neuronal Survival, 2014 The Journal of Biological Chemistry 289, 31014-31028] using a luciferase assay, the CellTiter-Glo Luminescent cell viability assay (Promega). Astrocytes grown on multiplate of 48 wells were rinsed and incubated 1 h at 37° C. in an atmosphere containing 5% CO2 and 95% air in DMEM (D5030; Sigma-Aldrich) containing 44 mm NaHCO3 and 2 mm glucose. At the end of the incubation, medium was removed, and 200 μl of Tricine buffer solution (40 mm Tricine, 3 mm EDTA, 85 mm NaCl, 3.6 mm KCl, 100 mm NaF, and 0.1% saponin (84510; Sigma-Aldrich), pH 7.4) was put in each well. Cells were lysed by saponin effect and by pipetting. Each sample was divided for ATP measure and for ATP+ADP measure. 90-μl aliquots were distributed in a black-walled 96-well type microplates (PerkinElmer Life Sciences). […] Finally, 100 μl of CellTiter-Glo reagent (G7571; Promega) was added, and luminescence was immediately detected with a luminometer (Safire 2; Tecan). Luminescence was measured in a kinetic way determined by 20 readings at intervals of 1 min. Luminescence read at the plateau were taken to calculate the ATP/ADP ratio. […]
For orientation: ATP-based viability assays read luminescence as a measure of living cells.

Data set [1] concerns primary brain cell cultures. The data set is described as follows: NAD/NADH cycling assay. Particulars: after 30 min in the presence of the compound. It is filed as cell-based, mouse. As for the experimental part:
Cycling assays for nicotinamide adenine dinucleotides was performed as described [Yang J, et al, Lactate promotes plasticity gene expression by potentiating NMDA signaling in neurons. Proc Natl Acad Sci USA. 2014. 111(33):12228-33]. Briefly, cells were rinsed two times with ice-cold PBS, harvested in 400 μL ice-cold carbonate-bicarbonate buffer (100 mM Na2CO3 and 20 mM NaHCO3 containing 10 mM nicotinamide to inhibit NADase), and frozen at −80° C. Cell membranes were lysed by heat shock in a 37° C. water bath and immediately chilled on ice. Extracts were centrifuged at 12,000×g for 30 min at 4° C. and half of the supernatant was heated at 60° C. for 30 min to denature NAD. Twenty-five microliters of the heated extract (containing NADH only), 100 μL of the unheated extract (containing NAD and NADH), and 50 μL of standards of known NADH (Roche) concentrations (ranging from 0.0625 to 1 μM) dissolved in carbonate bicarbonate buffer were loaded onto a 96-well microplate along with blanks (carbonate-bicarbonate buffer). Volumes were adjusted to 100 μL with carbonate-bicarbonate buffer and 150 μL of a reaction buffer was added into each well. […] The absorbance was followed spectrophotometrically at 560 nm every 15 s over a 5-min period (Safire 2; Tecan). Blank values were subtracted from all samples and NAD amounts were calculated by subtracting NADH values from total NAD+NADH values.

Data set [2] deals with organotypic hippocampal brain slices with IAA lesion. Kind of data set: Organotypic brain slices, iodoacetic acid injury: mitochondrial membrane potential (TMRM). It is filed as cell-based, mouse. Particulars: SND118 10 and 30 μM; SND124 30 μM; IAA 250 μM for 110 min. As for the experimental part:
Preparation of the organotypic brain slices were performed by decapitation of the P9/P10 mouse pups, removing skin and skull and immersing brains in slicing medium (Opti-MEM 1, […]). Brains were hemisected and hippocampi were isolated. Hippocampi were placed on the cutting disc of a McIlwain Tissue Chopper. […] hippocampal slices were chopped transversely. A number of 4 slices per hippocampus were placed on porous (0.4 μM) transparent membrane inserts (Millipore) and incubated for 1 h on ice in HBSS containing 10 mM glucose. Afterwards inserts were transferred to fresh 24-well plates containing 250-300 μl culture medium (50% MEM/EBSS, 25% horse serum, 25% CMF-HBSS, 25 mM glucose, 0.5% pen/strep). Slices were maintained at 37° C. and 5% CO2.
On DV15, brain slices were pretreated with SND derivatives test compounds and the reference 7,8DHF at various concentrations (between […]) for 30 min, followed by the addition of iodoacetic acid (IAA) at 250 μM for 110 min, when cell survival, MMP and toxicity were measured.
Cell survival was measured by the MTT assay. […] Fluorescence was measured with a plate-reader (Cytation 5) using wavelengths of excitation and emission of 548 and 574 nm, respectively (area scan). Values were calculated as percent of control values (vehicle control). Toxicity of the treatment was measured by LDH. […]

Data set [3] in a line: Metabolic stability in mouse plasma. It is filed as in vitro ADME, CD1-mouse. Particulars: 1 μM. As for the experimental part: The compounds were incubated with plasma, and the collected samples were analyzed by UPLC/HR-MS to measure stability of the compounds.
Sample type: plasma; Species: CD1-mouse (male), human (mixed gender); Time points: 0, 20, 40, 60, 120 min;
Spiking solvent: 50% DMSO ( 1/100 to incubation); Quenching solvent: 2-fold volume of 100% ACN; Control: propanthelin bromide (human, mouse)
The study compounds were incubated with plasma as specified above. The collected samples were stored at −20 C until thawed at room temperature, centrifuged and analyzed using UPLC/PDA with high resolution mass spectrometry (QE-Orbitrap-MS on DDI mode) to monitor substrate depletion and metabolite formation. The analytical method was optimised by using the parent compounds for optimum chromatographic properties (peak shape and retention) and mass spectrometric ionisation. Disappearance was based on relative LC/MS peak areas (0 min=100%) and will be used to calculate half-lives.

`O=c1cc(-c2ccc(CCCC[P+](c3ccccc3)(c3ccccc3)c3ccccc3)cc2)oc2c(O)c(O)ccc12` [SND118, 4-[4-(7,8-dihydroxy-4-oxo-chromen-2-yl)phenyl]butyltriphenylphosphonium bromide]: in the data set on Astrocytes (100 nM, 30 min), the “production of ATP” value is on record as “increased production of ATP”. Besides, the ATP/ADP ratio result with Astrocytes (various doses) is “trended higher at most doses”. In data set [1], the “production of NADH (NAD/NADH ratio)” value is “increased production of ATP and NADH”. Also, the “mitochondria function (MMP, TMRM) after IAA lesion” value in data set [2] is listed as “rescued mitochondria function”. For the same molecule, in data set [3], the “T1/2 plasma Mouse” value stood at 789 min.
